Laboratory results reported in EP2535049A1 (Proyecto de Biomedicina Cima, S.L., priority 2011, dated 2012).
Values joined by “and” are separate entries in the source; they are usually repeats but may differ in a detail not shown here. Equal entries are not always repeated. “Also recorded” adds a separate entry of the source. Marks after values point to notes of the source that are not given here.

Columns and labels:
[1] = Serum and brain levels of tadalafil after oral administration (HPLC-MS); format: in vivo, Mouse; details: for logBB (brain): average of logBB data from Ctx, Str and Hip, n=6, spread = Standard Deviation
Experimental: BB is the ratio of brain versus serum concentration. […] In addition, considering values in the three brain regions, the compound distribution looks quite uniform. Table 2. Blood-brain barrier permeability, as logBB, for Tadalafil
For analysis samples were prepared as follows: • 100 µl of serum were treated with 300 µl of 1% formic acid in acetonitrile. Mixture was vortexed for 5 minutes. The supernatant after centrifugation was filtered using a HybridSPE™ (Supelco, Bellefonte, USA) cartridge and the eluate was dried under an air stream. The powder was reconstituted in 100 µl of 50:50 (v/v) ammonium formate (pH=3):acetonitrile. After centrifugation the supernatant was used for analysis. • 100 mg of brain sample were treated with 600 µl of 1% formic acid in acetonitrile. The mixture was sonicated for 10 seconds and centrifuged for 5 minutes. The supernatant after centrifugation was filtered using a HybridSPE™ (Supelco, Bellefonte, USA) cartridge and the eluate was dried under an air stream. The powder was reconstituted in 100 µl of 50:50 (v/v) ammonium formate (pH=3):acetonitrile. After centrifugation the supernatant was used for analysis.

pTau = experiment: Immunohistochemistry of pTau (PHF-1, AT8) in J20 mice; format: in vivo; details: J20 mice treated for 10 weeks
Experimental: Results were compared with those obtained from age-matched negative littermates (controls). To test the effect of the PDE5 inhibitors in cognition capacity related to aging, a second treatment was carried out using 10-12 month-old non-transgenic (wild type) mice on an inbred C57/B6xSJL genetic background.
Twenty four hours after the fear conditioning test, animals (n=5, per group) were sacrificed and the brains removed for biochemical studies. The cortex and hippocampus were dissected, homogenized, and processed as described below for subsequent western blot analysis. Under xylazine/ketamine anesthesia, animals (n=4 per group) were perfused transcardially with saline and 4% paraformaldehyde in phosphate buffer (PB). After perfusion, brains were removed, post-fixed in the same fixative solution for 1 h at room temperature and cryoprotected in 30% sucrose solution in PB overnight at 4 °C. […]
For p-tau staining, slides were incubated in blocking solution (3% milk in TBS) and incubated overnight with primary antibody AT8 (1:50 v/v, Pierce, Woburn, MA, USA) or PHF1 (1:100 v/v, Dr. Peter Davies, Albert Einstein College, Bronx, NY, USA) at 4 °C. […] Fluorescence signals were detected with confocal microscope LSM 510 Meta (Carl Zeiss, Germany); objective Plan-neofluar 40x/1.3 oil DIC. Sections were evaluated in Z-series (0.4 microm steps) using LSM 510 Meta software.

[2] = quoted from WO2010/074783, page 109; cited from earlier work
[3] = BB = ratio of brain versus serum concentration, n=6 treated mice, (Standard Deviation)
[4] = concentration of tadalafil 90 minutes after oral administration of Cialis (15 mg/Kg), individual mice

CN1CC(=O)N2[C@H](c3ccc4c(c3)OCO4)c3[nH]c4ccccc4c3C[C@@H]2C1=O [tadalafil, (6R-trans)-6-(1,3-benzodioxol-5-yl)-2,3,6,7,12,12a-hexahydro-2-methyl-pyrazino [1',2':1,6] pyrido [3,4-b]indole-1,4-dione]
logBB (Ctx) [1, 3]: -0.89 (0.16)^b | logBB (Hip) [1, 3]: -0.81 (0.17)^b | logBB (Str) [1, 3]: -0.98 (0.13)^b | Hip ([1]; Hippocampus, 90 minutes after oral administration of Cialis (15 mg/Kg), individual mice): 0.45 µM and 0.91 µM and 1.54 µM and 2.19 µM and 1.48 µM and 1.35 µM | Ctx ([1]; Prefrontal Cortex, 90 minutes after oral administration of Cialis (15 mg/Kg), individual mice): 0.61 µM and 1.25 µM and 1.22 µM and 1.35 µM and 0.73 µM and 0.91 µM | Str ([1]; Striatum, 90 minutes after oral administration of Cialis (15 mg/Kg), individual mice): 0.39 µM and 0.82 µM and 1.09 µM (2×) and 0.72 µM and 0.93 µM | logBB (brain) [1]: -0.89+/-0.09 | logBB (brain) ([1]; listed as Tadalafil): -0.89 (0.09)^b | Serum (µM) [1, 4]: 4,95 µM | concentration at 90 min [1, 4]: 9.65 µM and 7.27 µM and 10.23 µM and 8.10 µM | Kp at 90 min ([1]; mouse, oral, 15 mg/Kg, from logBB of the three brain areas): ~0.12 | concentration at 90 min ([1]; mouse, serum, oral, 15 mg/Kg, concentration of tadalafil 90 minutes after oral administration of Cialis (15 mg/Kg), individual mice): 6.53 µM | pTau levels, PHF-1 anti-p-Tau Ser-396/404 antibody labeling (pTau; hippocampal and cortical slices): decrease in pTau levels; also recorded: much more marked than in animals treated with sildenafil | pTau pathology, anti-pTau antibody recognizing Ser202 and Thr205 (AT8) labeling (pTau; hippocampus slices): lesser pTau pathology in animals treated with tadalafil than with sildenafil | ability to cross the BBB [2]: unable to cross the BBB
